{"source": "patent US20030181515A1", "about": "“Methods of using kavalactone compositions” (Kava Pharmaceuticals, Inc., a Delaware corporation, priority 2001, published 2003)", "note": "“Also recorded” adds a separate entry of the source.", "data": [{"test_system": "IL-12", "assay": "IL-12 inhibitory assay in IFNγ-primed, LPS-stimulated human PBMC (ELISA)", "type": "cell-based", "conditions": "human PBMC primed with IFNγ, supernatants 20 h later, FIG. 1", "experimental": "This invention is based in part on the unexpected discovery that specific kavalactones inhibit production of IL-12, whose overproduction is implicated in a number of diseases and disease symptoms. The IL-12 inhibitory activity of six major kavalactones (e.g., desmethoxyyangonin, dihydrokawain, dihydromethysticin, kawain, methysticin, and yangonin) was measured using a cellular assay for determination of IL-12 cytokine inhibition. […] Thus, compositions containing one of the three active kavalactones, kawain, dihydrokawain, dihydromethysticin, or a combination thereof, are useful for treating disease or disease symptoms related to IL-12 overproduction.\nReferring back to FIG. 1, six kavalactones were tested in an IL-12 inhibitory assay as follows: Lipopolysaccharide (LPS, Serratia marscencens) was obtained from Sigma (St. Louis, Mo.). Human recombinant IFNg was purchased from Boehringer Mannheim. (Mannheim, Germany). Human peripheral blood mononuclear cells were isolated by centrifugation using Ficall-Paque (Pharmacia Biotech, Uppsala, Sweden) and prepared in RPMI medium supplemented with 10% FCS and antibiotics in a 96-well plate with 1×10^6 cells/well. Human PBMC were primed with IFNγ (30 U/mL) for 16 h and then stimulated with […] of LPS in the presence of different concentrations of test compound. Cell-free supernatants were taken 20 h later for measurement of cytokines. Cell viability was assessed using the bioreduction of MTS [3-(4,5-dimethylthiazol-2-yl)-5-(3-carboxymethoxyphenyl)-2-(4-sulfophenyl)-2H-tetrazolium] (Promega, Madison, Wis.). Cell survival was estimated as the ratio of the absorbance in compound-treated groups versus compound-free control. Human IL-12 was assayed using ELISA kits (Endogen, Cambridge, Mass.), essentially according to the manufacturer's instructions. IL-12 inhibition can also be measured by other methods (e.g., in vivo, in vitro, animal models) of assaying for enzyme inhibition activity.", "values": [{"smiles": "COC1=CC(=O)O[C@@H](CCc2ccccc2)C1", "note": "[dihydrokawain]", "IL-12 inhibitory activity": "much higher IL-12 inhibitory activity relative to the other kavalactones; also recorded: exhibit IL-12 inhibitory activity"}, {"smiles": "COC1=CC(=O)O[C@@H](CCc2ccc3c(c2)OCO3)C1", "note": "[dihydromethysticin]", "IL-12 inhibitory activity": "much higher IL-12 inhibitory activity relative to the other kavalactones; also recorded: exhibit IL-12 inhibitory activity"}, {"smiles": "COC1=CC(=O)O[C@@H](/C=C/c2ccccc2)C1", "note": "[kawain]", "IL-12 inhibitory activity": "much higher IL-12 inhibitory activity relative to the other kavalactones; also recorded: exhibit IL-12 inhibitory activity"}]}]}
